Assay results: PubChem BioAssay (NCI)
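Where inhibition never reached the appropriate level, the endpoint shown equals the highest concentration tested. Otherwise, values were interpolated linearly from a five-concentration, 48-hour dose response in 96-well plates. At the TGI there is no net growth.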

Assays:
Experiment in all cases: NCI anticancer screen, dose series, 48 h
SK-MEL-28 melanoma = tested on: SK-MEL-28 melanoma
LXFL 529 NSCLC = tested on: LXFL 529 NSCLC
ACHN renal = tested on: ACHN renal
SNB-75 CNS = tested on: SNB-75 CNS
SF-268 CNS = tested on: SF-268 CNS
DMS 114 small cell lung = tested on: DMS 114 small cell lung
A549 NSCLC = tested on: A549 NSCLC
HL-60(TB) leukemia = tested on: HL-60(TB) leukemia
CCRF-CEM leukemia = tested on: CCRF-CEM leukemia
SNB-19 CNS = tested on: SNB-19 CNS
TK-10 renal = tested on: TK-10 renal
KM20L2 colon = tested on: KM20L2 colon
SK-MEL-2 melanoma = tested on: SK-MEL-2 melanoma
RPMI-8226 leukemia = tested on: RPMI-8226 leukemia
SNB-78 CNS = tested on: SNB-78 CNS
HCT-116 colon = tested on: HCT-116 colon
KM12 colon = tested on: KM12 colon
DLD-1 colon = tested on: DLD-1 colon
UACC-62 melanoma = tested on: UACC-62 melanoma
786-0 renal = tested on: 786-0 renal
UO-31 renal = tested on: UO-31 renal
IGROV1 ovarian = tested on: IGROV1 ovarian
SN12C renal = tested on: SN12C renal
M14 melanoma = tested on: M14 melanoma
LOX IMVI melanoma = tested on: LOX IMVI melanoma
OVCAR-8 ovarian = tested on: OVCAR-8 ovarian
DMS 273 small cell lung = tested on: DMS 273 small cell lung
SF-295 CNS = tested on: SF-295 CNS
OVCAR-4 ovarian = tested on: OVCAR-4 ovarian
HOP-18 NSCLC = tested on: HOP-18 NSCLC
OVCAR-3 ovarian = tested on: OVCAR-3 ovarian
COLO 205 colon = tested on: COLO 205 colon
HT29 colon = tested on: HT29 colon
SW-620 colon = tested on: SW-620 colon
NCI-H226 lung = tested on: NCI-H226 lung
HCT-15 colon = tested on: HCT-15 colon
XF 498 CNS = tested on: XF 498 CNS
NCI-H460 lung = tested on: NCI-H460 lung
EKVX NSCLC = tested on: EKVX NSCLC
U251 CNS = tested on: U251 CNS
SK-OV-3 ovarian = tested on: SK-OV-3 ovarian
MOLT-4 leukemia = tested on: MOLT-4 leukemia
UACC-257 melanoma = tested on: UACC-257 melanoma
MALME-3M melanoma = tested on: MALME-3M melanoma
SK-MEL-5 melanoma = tested on: SK-MEL-5 melanoma
K-562 leukemia = tested on: K-562 leukemia
RXF 393 renal = tested on: RXF 393 renal
HCC-2998 colon = tested on: HCC-2998 colon
M19-MEL melanoma = tested on: M19-MEL melanoma
HOP-92 NSCLC = tested on: HOP-92 NSCLC
SF-539 CNS = tested on: SF-539 CNS
NCI-H522 lung = tested on: NCI-H522 lung
NCI-H23 lung = tested on: NCI-H23 lung
OVCAR-5 ovarian = tested on: OVCAR-5 ovarian
CAKI-1 renal = tested on: CAKI-1 renal
HOP-62 NSCLC = tested on: HOP-62 NSCLC
A498 renal = tested on: A498 renal

Measured: TGI

Cc1cn(C2CC(n3cncn3)C(C(C)O)O2)c(=O)[nH]c1=O (configuration not stated)
not listed: CAKI-1 renal | HOP-62 NSCLC | A498 renal
> 100 µM: all other assays above

CCCOP1(=O)C=CC(Cl)=C(C)C1 (configuration not stated)
64.3 µM: UACC-257 melanoma
> 68.2 µM: SF-539 CNS
> 75.2 µM: OVCAR-3 ovarian
> 93.1 µM: XF 498 CNS
50.4 µM: KM12 colon
33.5 µM: HCT-116 colon
> 66.5 µM: ACHN renal
52.1 µM: MALME-3M melanoma
39.7 µM: HCT-15 colon
60.1 µM: RPMI-8226 leukemia
> 95.9 µM: CAKI-1 renal
47.5 µM: OVCAR-8 ovarian
19.7 µM: CCRF-CEM leukemia
> 61.1 µM: LXFL 529 NSCLC
52.2 µM: UACC-62 melanoma
76 µM: 786-0 renal
33.9 µM: COLO 205 colon
42.8 µM: SK-MEL-28 melanoma
22.2 µM: MOLT-4 leukemia
47.9 µM: DLD-1 colon
> 89.5 µM: SK-MEL-2 melanoma
42.2 µM: SW-620 colon
> 88 µM: EKVX NSCLC
> 61.3 µM: M14 melanoma
33.4 µM: RXF 393 renal
89.3 µM: DMS 114 small cell lung
> 31.6 µM: K-562 leukemia
31.6 µM: NCI-H522 lung
not listed: HL-60(TB) leukemia | DMS 273 small cell lung | NCI-H226 lung | M19-MEL melanoma
> 100 µM: all other assays above
